≈ marks a conversion by molar mass, not a printed value.
Experiments:
Liver = assay: Intrinsic clearance in human liver microsomes; assay type: ADME, microsome
[1] = Solubility of the compound; assay type: physicochemical
[2] = target: T1, Leucine-rich repeat serine/threonine-protein kinase 2 (Homo sapiens, UniProt Q5S007); assay: Inhibition of LRRK2 (unknown origin) by HTRF assay
Mus musculus [3] = assay: Volume of distribution at steady state in Swiss albino mouse at 1 mg/kg, iv or 10 mg/kg, po; assay type: ADME, organism-based; details: in vivo
[4] = Half life in Swiss albino mouse at 1 mg/kg, iv or 10 mg/kg, po; assay type: ADME, organism-based; details: in vivo
Mus musculus [5] = assay: Dose normalized AUC in Swiss albino mouse at 1 mg/kg, iv; assay type: ADME, organism-based; details: in vivo
[6] = Protein binding in mouse brain; assay type: ADME, tissue-based; details: read-out: PB (converted)
[7] = Passive permeability in MDCK cells expressing human MDR1; assay type: ADME, cell-based, Canis lupus familiaris; details: dog, read-out: permeability
[8] = Oral bioavailability in Swiss albino mouse at 2 mg/kg; assay type: ADME, organism-based; details: in vivo
[9] = Volume of distribution at steady state in Swiss albino mouse at 1 mg/kg, iv or 2 mg/kg, po; assay type: ADME, organism-based; details: in vivo, read-out: Vdss
[10] = Half life in Swiss albino mouse at 1 mg/kg, iv or 2 mg/kg, po; assay type: ADME, organism-based; details: in vivo
[11] = Ratio of drug level in Swiss albino mouse brain to blood at 1 mg/kg, iv or 2 mg/kg, po; assay type: ADME, organism-based
[12] = Blood clearance in Swiss albino mouse at 1 mg/kg, iv or 2 mg/kg, po; assay type: ADME, organism-based; details: whole blood
[13] = target: T1, Leucine-rich repeat serine/threonine-protein kinase 2; assay: Inhibition of human LRRK2 using RLGRDKYKTLRQIRQ as substrate at 1uM in presence of [gamma-33P]-ATP
SRSF protein kinase 3 [14] = target: T2, SRSF protein kinase 3 (Homo sapiens, UniProt Q9UPE1); assay: Inhibition of human MSSK1 using GRSRSRSRSR as substrate at 1uM in presence of [gamma-33P]-ATP
SRSF protein kinase 3 [15] = target: T2, SRSF protein kinase 3; assay: Inhibition of human MSSK1 GRSRSRSRSR as substrate in presence of [gamma-33P]-ATP

T1 sequence (Q5S007 whole entry): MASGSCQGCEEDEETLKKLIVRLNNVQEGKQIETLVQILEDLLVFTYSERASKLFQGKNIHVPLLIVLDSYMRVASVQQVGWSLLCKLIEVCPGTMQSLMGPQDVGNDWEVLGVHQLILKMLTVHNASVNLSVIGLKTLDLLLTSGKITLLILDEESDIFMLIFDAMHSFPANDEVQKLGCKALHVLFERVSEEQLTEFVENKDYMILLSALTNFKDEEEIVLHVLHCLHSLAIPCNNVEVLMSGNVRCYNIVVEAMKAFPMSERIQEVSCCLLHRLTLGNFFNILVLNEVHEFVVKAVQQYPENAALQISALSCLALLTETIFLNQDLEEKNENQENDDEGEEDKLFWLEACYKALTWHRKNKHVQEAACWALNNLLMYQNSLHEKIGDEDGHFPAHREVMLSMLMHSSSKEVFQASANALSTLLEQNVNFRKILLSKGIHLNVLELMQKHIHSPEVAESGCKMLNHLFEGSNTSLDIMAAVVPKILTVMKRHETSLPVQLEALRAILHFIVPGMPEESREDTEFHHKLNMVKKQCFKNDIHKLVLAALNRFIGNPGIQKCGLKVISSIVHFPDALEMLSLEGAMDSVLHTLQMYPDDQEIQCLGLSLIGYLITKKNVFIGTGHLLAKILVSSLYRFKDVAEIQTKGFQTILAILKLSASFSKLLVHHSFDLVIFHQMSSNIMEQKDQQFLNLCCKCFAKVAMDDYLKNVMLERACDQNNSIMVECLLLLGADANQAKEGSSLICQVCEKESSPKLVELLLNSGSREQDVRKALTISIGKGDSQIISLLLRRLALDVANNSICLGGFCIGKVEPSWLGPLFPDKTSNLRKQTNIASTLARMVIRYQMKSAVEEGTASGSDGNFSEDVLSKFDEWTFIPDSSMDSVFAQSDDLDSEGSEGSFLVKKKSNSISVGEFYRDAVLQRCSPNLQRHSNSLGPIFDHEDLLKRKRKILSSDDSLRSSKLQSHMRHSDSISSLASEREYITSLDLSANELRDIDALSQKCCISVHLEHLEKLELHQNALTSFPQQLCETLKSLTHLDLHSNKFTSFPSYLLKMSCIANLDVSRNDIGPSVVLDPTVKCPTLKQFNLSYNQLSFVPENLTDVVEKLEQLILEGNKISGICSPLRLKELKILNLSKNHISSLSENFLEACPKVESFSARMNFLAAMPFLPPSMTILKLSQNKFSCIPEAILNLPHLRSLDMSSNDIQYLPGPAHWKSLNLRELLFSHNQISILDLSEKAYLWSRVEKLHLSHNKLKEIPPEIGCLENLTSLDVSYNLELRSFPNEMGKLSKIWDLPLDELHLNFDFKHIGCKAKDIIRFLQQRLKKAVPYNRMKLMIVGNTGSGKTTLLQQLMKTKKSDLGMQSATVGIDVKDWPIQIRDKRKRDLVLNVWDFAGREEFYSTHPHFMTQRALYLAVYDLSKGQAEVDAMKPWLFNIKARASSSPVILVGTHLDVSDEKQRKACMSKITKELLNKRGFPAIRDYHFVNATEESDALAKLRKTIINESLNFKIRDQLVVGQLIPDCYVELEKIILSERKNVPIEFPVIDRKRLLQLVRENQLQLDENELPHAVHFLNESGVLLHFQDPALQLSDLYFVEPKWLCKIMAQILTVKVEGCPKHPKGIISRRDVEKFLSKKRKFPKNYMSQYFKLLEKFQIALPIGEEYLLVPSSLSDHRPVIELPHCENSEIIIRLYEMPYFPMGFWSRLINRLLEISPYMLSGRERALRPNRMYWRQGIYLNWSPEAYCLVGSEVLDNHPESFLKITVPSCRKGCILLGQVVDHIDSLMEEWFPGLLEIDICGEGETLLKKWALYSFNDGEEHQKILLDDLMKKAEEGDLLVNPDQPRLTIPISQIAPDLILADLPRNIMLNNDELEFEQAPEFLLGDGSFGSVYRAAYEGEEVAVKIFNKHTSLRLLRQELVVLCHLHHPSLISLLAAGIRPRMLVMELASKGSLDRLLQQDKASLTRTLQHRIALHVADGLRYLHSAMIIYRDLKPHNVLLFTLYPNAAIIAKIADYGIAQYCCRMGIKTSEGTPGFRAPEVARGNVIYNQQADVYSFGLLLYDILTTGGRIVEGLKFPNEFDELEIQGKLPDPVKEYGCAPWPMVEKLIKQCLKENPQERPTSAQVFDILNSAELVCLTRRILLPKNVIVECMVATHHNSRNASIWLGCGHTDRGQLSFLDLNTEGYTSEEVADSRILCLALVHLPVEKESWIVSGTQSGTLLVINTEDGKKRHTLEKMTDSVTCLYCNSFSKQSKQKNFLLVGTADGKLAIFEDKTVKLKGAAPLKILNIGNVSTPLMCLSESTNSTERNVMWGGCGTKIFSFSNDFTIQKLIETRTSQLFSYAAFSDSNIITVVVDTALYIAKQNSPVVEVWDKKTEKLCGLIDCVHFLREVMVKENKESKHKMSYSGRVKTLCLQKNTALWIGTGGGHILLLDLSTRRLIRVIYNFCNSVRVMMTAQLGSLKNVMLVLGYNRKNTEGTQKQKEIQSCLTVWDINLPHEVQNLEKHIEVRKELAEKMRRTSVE
T2 sequence (Q9UPE1 whole entry): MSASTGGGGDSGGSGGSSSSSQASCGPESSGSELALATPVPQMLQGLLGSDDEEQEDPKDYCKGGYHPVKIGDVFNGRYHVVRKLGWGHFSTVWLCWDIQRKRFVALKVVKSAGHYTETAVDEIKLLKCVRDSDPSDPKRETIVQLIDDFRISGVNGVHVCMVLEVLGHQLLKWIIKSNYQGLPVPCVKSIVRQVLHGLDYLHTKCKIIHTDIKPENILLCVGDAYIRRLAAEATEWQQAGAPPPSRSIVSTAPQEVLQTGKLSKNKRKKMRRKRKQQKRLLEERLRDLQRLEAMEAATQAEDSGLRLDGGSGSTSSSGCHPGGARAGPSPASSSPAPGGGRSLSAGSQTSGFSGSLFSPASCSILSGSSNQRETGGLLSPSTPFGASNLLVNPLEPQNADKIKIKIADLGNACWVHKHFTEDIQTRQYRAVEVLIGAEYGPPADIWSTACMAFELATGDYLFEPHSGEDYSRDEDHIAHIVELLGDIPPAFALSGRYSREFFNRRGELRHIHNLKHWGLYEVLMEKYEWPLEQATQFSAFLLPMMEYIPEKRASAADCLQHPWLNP

**Q.** With O=C(Nc1cccnc1)c1cc(Br)ccc1OCc1ccccc1 as the compound, how does the CLH (Liver) read?
**A.** 2.8 mL/min/g

**Q.** And the solubility [1]?
**A.** < 1 µM

**Q.** What about the IC50 [2] of the same compound?
**A.** 0.0126 µM

**Q.** With O=C(Nc1cccnc1)c1cc(Br)ccc1OCc1ccccc1F as the compound, how does the IC50 [2] read?
**A.** 0.00794 µM

**Q.** Which CLH (Liver) does the source give for O=C(Nc1cccnc1)c1cc(-c2ccnc(F)c2)ccc1OCc1ccccc1 here?
**A.** 1.2 mL/min/g

**Q.** And the Vdss (Mus musculus [3])?
**A.** 2.3 L/kg

**Q.** And the half-life [4]?
**A.** 1.1 h

**Q.** What about the AUC/dose (Mus musculus [5]) of the same compound?
**A.** 520 ng·h/mL/mg/kg

**Q.** What about the fraction unbound [6] of the same compound?
**A.** 0.003

**Q.** And the IC50 [2]?
**A.** 0.01 µM

**Q.** What about the Papp [7] of the same compound?
**A.** > 100 nm/s

**Q.** What does the source list for Cn1cc(-c2ccc(OCc3ccc(F)cc3)c(C(=O)Nc3cccnc3)c2)cn1?
**A.** bioavailability [8]: 10%; Vd [9]: 1.6 L/kg; half-life [10]: 0.4 h; AUC/dose (Mus musculus [5]): 253 ng·h/mL/mg/kg; Papp [7]: > 100 nm/s

**Q.** With O=C(Nc1cccnc1)c1cc(C(F)(F)F)ccc1OCc1ccc(F)cc1 as the compound, how does the bioavailability [8] read?
**A.** 91.6%

**Q.** And the CLH (Liver)?
**A.** 0.8 mL/min/g

**Q.** What about the solubility [1] of the same compound?
**A.** 11 µM (≈ 4.29 µg/mL)

**Q.** And the Kp [11]?
**A.** 1.3

**Q.** And the Vd [9]?
**A.** 2.7 L/kg

**Q.** And the half-life [10]?
**A.** 1.2 h

**Q.** What about the clearance [12] of the same compound?
**A.** 1.66 L/h/kg

**Q.** And the inhibition [13]?
**A.** > 40%

**Q.** What about the AUC/dose (Mus musculus [5]) of the same compound?
**A.** 597 ng·h/mL/mg/kg

**Q.** What about the fraction unbound [6] of the same compound?
**A.** 0.004

**Q.** What about the inhibition (SRSF protein kinase 3 [14]) of the same compound?
**A.** > 40%

**Q.** What about the Papp [7] of the same compound?
**A.** > 100 nm/s

**Q.** What about the IC50 (SRSF protein kinase 3 [15]) of the same compound?
**A.** 0.158 µM

**Q.** Which IC50 [2] does the source give for O=C(Nc1cccnc1)c1cc(Br)ccc1OCc1cccc(F)c1 here?
**A.** 0.0158 µM
